Measured values reported in patent publication US20260274892A1, “MACROCYCLIC BROAD SPECTRUM ANTIBIOTICS” (RQx Pharmaceuticals, Inc., priority 2017, published 2026).
Read-outs that look alike come from different tables or passages of the source.

Legend:
[1] = cc_pd bond, Pd(dppf)Cl2·CH2Cl2, acetonitrile
[2] = tested on: Methicillin Resistant Staphylococcus aureus strain USA 200; assay: Minimum inhibitory concentration (MIC), CLSI broth micro-dilution, S. aureus; format: cell-based; details: Staphylococcus aureus, MRSA / USA200; Table 6; MRSA USA 200; cation adjusted Mueller Hinton Broth + 0.002% Tween-80; 35° C., 22 hours
How it was run: (§1)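 Antibacterial potency is measured as MIC by the CLSI broth dilution method. Bacteria at OD600 0.0005 in Tween-80-supplemented cation-adjusted Mueller Hinton broth face ten twofold compound dilutions for 22 h at 35° C.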

[3] = tested on: Escherichia coli ATCC 25922; assay: Minimum inhibitory concentration (MIC), CLSI broth micro-dilution, E. coli; format: cell-based; details: Escherichia coli, ATCC25922, 22 h, Table 6, cation adjusted Mueller Hinton Broth + 0.002% Tween-80, 35° C.
How it was run: as §1

Compound	ring closure, yield of all isomers ([1]; from COC(=O)[C@H](Cc1cc(F)c(OCc2ccccc2)c(B2OC(C)(C)C(C)(C)O2)c1)NC(=O)[C@H](C)NC(=O)[C@H](c1ccc(OCCNC(=O)OC(C)(C)C)c(I)c1)N(C)C(=O)OCc1ccccc1, 20.06 mM, 70.0 °C, 1.5 h)	ring closure, yield of all isomers ([1]; from COC(=O)[C@H](Cc1cc(O)c(OC)c(B2OC(C)(C)C(C)(C)O2)c1)NC(=O)[C@H](C)NC(=O)[C@H](c1ccc(OC)c(I)c1)N(C)C(=O)OC(C)(C)C, 65.0 °C, 2.0 h)	MIC [2]	MIC [3]
COC(=O)[C@@H]1Cc2cc(F)c(OCc3ccccc3)c(c2)-c2cc(ccc2OCCNC(=O)OC(C)(C)C)[C@H](N(C)C(=O)OCc2ccccc2)C(=O)N[C@@H](C)C(=O)N1	31%			
COC(=O)[C@@H]1Cc2cc(O)c(OC)c(c2)-c2cc(ccc2OC)[C@H](N(C)C(=O)OC(C)(C)C)C(=O)N[C@@H](C)C(=O)N1		17.1%		
Cc1nc(-c2ccc(OC3CCCCC3)cc2)nc(C)c1C(=O)N[C@@H](CCCNS(N)(=O)=O)C(=O)N(C)[C@@H]1C(=O)N[C@@H](C)C(=O)N[C@H](C(=O)NCC#N)Cc2ccc(OCCN)c(c2)-c2cc1ccc2OCCN [Compound 503, (8S,11S,14S)-3,18-bis(2-aminoethoxy)-N-(cyanomethyl)-14-[[(2S)-2-[[2-[4-(cyclohexoxy)phenyl]-4,6-dimethyl-pyrimidine-5-carbonyl]amino]-5-(sulfamoylamino)pentanoyl]-methyl-amino]-11-methyl-10,13-dioxo-9,12-diazatricyclo[13.3.1.12,6]icosa-1(18),2(20),3,5,15(19),16-hexaene-8-carboxamide]			0.047 µM	1 µM
Cc1nc(-c2ccc3c(c2)CCC3(C)C)nc(C)c1C(=O)N[C@@H](CCN)C(=O)N(C)[C@@H]1C(=O)N[C@@H](C)C(=O)N[C@H](C(=O)NCC#N)Cc2ccc(O)c(c2)-c2cc1ccc2OCCN (racemic) [Compound 531, rac-(8S,11S,14S)-18-(2-aminoethoxy)-N-(cyanomethyl)-3-hydroxy-11-methyl-14-[methyl-[rac-(2S)-4-amino-2-[[2-(1,1-dimethylindan-5-yl)-4,6-dimethyl-pyrimidine-5-carbonyl]amino]butanoyl]amino]-10,13-dioxo-9,12-diazatricyclo[13.3.1.12,6]icosa-1(18),2(20),3,5,15 8-carboxamide]			0.047 µM	0.25 µM
Cc1nc(-c2ccc(C3(C)CC3)cc2)ncc1C(=O)N[C@@H](CCN)C(=O)N(C)[C@@H]1C(=O)N[C@@H](C)C(=O)N[C@H](C(=O)NCC#N)Cc2ccc(OCCN)c(c2)-c2cc1ccc2OCCN (racemic) [Compound 224, rac-(8S,11S,14S)-3,18-bis(2-aminoethoxy)-N-(cyanomethyl)-11-methyl-14-[methyl-[rac-(2S)-4-amino-2-[[4-methyl-2-[4-(1-methylcyclopropyl)phenyl]pyrimidine-5-carbonyl]amino]butanoyl]amino]-10,13-dioxo-9,12-diazatricyclo[13.3.1.12,6]icosa-1(18),2(20),3,5,15(19),16-hexaene-8-carboxamide]			0.017 µM	0.13 µM
CCCCCOc1ccc(-c2nc(C)c(C(=O)N[C@@H](CCN)C(=O)N(C)[C@@H]3C(=O)N[C@@H](C)C(=O)N[C@H](C(=O)NCC#N)Cc4ccc(O)c(c4)-c4cc3ccc4OCCN)c(C)n2)cc1 (racemic) [Compound 518, rac-(8S,11S,14S)-18-(2-aminoethoxy)-N-(cyanomethyl)-3-hydroxy-11-methyl-14-[methyl-[rac-(2S)-4-amino-2-[[4,6-dimethyl-2-(4-pentoxyphenyl)pyrimidine-5-carbonyl]amino]butanoyl]amino]-10,13-dioxo-9,12-diazatricyclo[13.3.1.12,6]icosa-1(18),2(20),3,5,15(19),16-hexaene-8-carboxamide]			0.028 µM	0.16 µM
Cc1nc(-c2ccc(C(C)(C)C)cc2)ncc1C(=O)N[C@@H](CCN)C(=O)N(C)[C@@H]1C(=O)N[C@@H](C)C(=O)N[C@H](C(=O)NCC#N)Cc2ccc(OC[C@H](C)N)c(c2)-c2cc1ccc2OC[C@H](C)N (racemic) [Compound 438, rac-(8S,11S,14S)-N-(cyanomethyl)-11-methyl-14-[methyl-[rac-(2S)-4-amino-2-[[2-(4-tert-butylphenyl)-4-methyl-pyrimidine-5-carbonyl]amino]butanoyl]amino]-10,13-dioxo-3,18-bis[rac-(2S)-2-aminopropoxy]-9,12-diazatricyclo[13.3.1.12,6]icosa-1(18),2(20),3,5,15(19),16-hexaene-8-carboxamide]			0.012 µM	0.16 µM
CCCCOc1ccc(-c2ncc(C(=O)N[C@@H](CCN)C(=O)N(C)[C@@H]3C(=O)N[C@@H](C)C(=O)N[C@H](C(=O)NCC#N)Cc4ccc(OCCN)c(c4)-c4cc3ccc4OCCN)c(C)n2)c(C)c1 (racemic) [Compound 242, rac-(8S,11S,14S)-3,18-bis(2-aminoethoxy)-N-(cyanomethyl)-11-methyl-14-[methyl-[rac-(2S)-4-amino-2-[[2-(4-butoxy-2-methyl-phenyl)-4-methyl-pyrimidine-5-carbonyl]amino]butanoyl]amino]-10,13-dioxo-9,12-diazatricyclo[13.3.1.12,6]icosa-1(18),2(20),3,5,15(19),16-hexaene-8-carboxamide]			0.016 µM	0.39 µM
C[C@@H]1NC(=O)[C@@H](N(C)C(=O)[C@H](CCN)NC(=O)c2ccc(Oc3ccc(C(C)(C)C)cc3)cc2Cl)c2ccc(OCCN)c(c2)-c2cc(ccc2OCCN)C[C@@H](C(=O)NCC#N)NC1=O (racemic) [Compound 376, rac-(8S,11S,14S)-3,18-bis(2-aminoethoxy)-N-(cyanomethyl)-11-methyl-14-[methyl-[rac-(2S)-4-amino-2-[[4-(4-tert-butylphenoxy)-2-chloro-benzoyl]amino]butanoyl]amino]-10,13-dioxo-9,12-diazatricyclo[13.3.1.12,6]icosa-1(18),2(20),3,5,15(19),16-hexaene-8-carboxamide]			0.016 µM	0.25 µM
Cc1nc(-c2ccc(OC3CCCC3)cc2)nc(C)c1C(=O)N[C@@H](CCN)C(=O)N(C)[C@@H]1C(=O)N[C@@H](C)C(=O)N[C@H](C(=O)NCC#N)Cc2ccc(OCCN)c(c2)-c2cc1ccc2OCCN (racemic) [Compound 336, rac-(8S,11S,14S)-3,18-bis(2-aminoethoxy)-N-(cyanomethyl)-11-methyl-14-[methyl-[rac-(2S)-4-amino-2-[[2-[4-(cyclopentoxy)phenyl]-4,6-dimethyl-pyrimidine-5-carbonyl]amino]butanoyl]amino]-10,13-dioxo-9,12-diazatricyclo[13.3.1.12,6]icosa-1(18),2(20),3,5,15(19),16-hexaene-8-carboxamide]			0.016 µM	0.15 µM
